How the values were obtained:
[1] = test system: MDSCs and T cells; assay: T cell proliferation in a co-culture model of MDSCs and T cells (flow cytometry); assay type: cell-based, mice; settings: MDSCs treated with 1 µM compound for 12 h, 48 h co-culture with T cells (1:1), compared to the control group
Experimental: Under sterile conditions, the tibia was removed, both ends of the bone were cut, and bone marrow was repeatedly flushed into a 15 mL centrifuge tube using a 1 mL syringe filled with culture medium. Centrifuge at 1600 rpm for 5 min to collect bone marrow cells. […] The spleen cell suspension was then transferred into a 15 mL centrifuge tube. Centrifuge at 1600 rpm for 5 min to collect T cells. Wash twice with 1×PBS. Resuspend the centrifuged T cells in 1 mL PBS and add 1 mL of 10 µM CFDA-SE solution. Incubate at room temperature for 8 min. […] After drug administration, collect MDSC cells into centrifuge tubes. Centrifuge at 1600 rpm for 5 min, remove supernatant, resuspend in 1 mL fresh medium, and plate. Add 1 mL stimulated activated T cells (1:1 ratio) for 48 h co-culture. After incubation, collect cells into centrifuge tubes, wash twice with PBS, and incubate with Fc antibody at room temperature in the dark for 10 min. Add CD3-labeled flow cytometry antibody and incubate at 4 °C in the dark for 30 min. After incubation, wash cells with PBS, resuspend in 300 µL PBS, and analyze by flow cytometry.

[2] = Conversion rate of salt-form prodrugs to parent compound in HEPES buffer solution; assay type: physicochemical
Experimental: Adjust the pH to 7.4 using 0.5 M NaOH, then dilute to a final volume 100 mL with distilled water.
(§1) Sample Analysis: Dissolve 0.6 mg of the compound in 250 µl of deionized water separately. Add 250 µl of mouse serum or HEPES 7.4 solution to the sample, incubate at a constant temperature of 37 °C, and collect samples at different time points. Pipette 20 µl of the sample to an EP tube, add 60 µl of methanol, vortex to mix thoroughly, and centrifuge at 12,000 rpm at 4 °C for 10 min. At 1 h, 2 h, 4 h, 8 h, and 12 h respectively, collect the supernatant for HPLC analysis. Inject 10 µL of sample and record the corresponding peak areas.

[3] = Conversion rate of salt-form prodrugs to parent compound in mouse plasma; assay type: in vitro ADME; settings: 37 °C
Experimental: Pharmaceutically acceptable salts of guaiane-type sesquiterpene lactone derivatives were selected and evaluated for their conversion rates to Compound 1 and Compound 83 in plasma and HEPES buffer, with results shown in Tables 2-1, 2-2, 3-1, and 3-2.
Plasma Preparation: Collect mouse plasma into an EP tube pre-loaded with sodium heparin, centrifuge at 8000 rpm for 10 minutes at 4°C, and then collect the supernatant.
as §1, with “areas. Chromatographic conditions: Hanbang C18 column (4.6 × 250 mm, 5 µm); mobile phase: acetonitrile: […] ammonium formate solution = 60:40; flow rate 1.0 mL/min; detection wavelength 210 nm; column temperature 30 °C. [drawing 171] Table 2-1. Conversion Rate of Compounds 20-42 to Compound 1 at Different Time Points in HEPES Buffer Solution” for “areas.”

[4] = conversion to Compound 1, HEPES buffer pH 7.4, 37 °C, 1 h
[5] = conversion to Compound 1, HEPES buffer pH 7.4, 37 °C, 2 h
[6] = conversion to Compound 1, HEPES buffer pH 7.4, 37 °C, 4 h
[7] = conversion to Compound 1, HEPES buffer pH 7.4, 37 °C, 8 h
[8] = conversion to Compound 1, HEPES buffer pH 7.4, 37 °C, 12 h
[9] = conversion to Compound 1, mouse plasma, 1 h
[10] = conversion to Compound 1, mouse plasma, 2 h
[11] = conversion to Compound 1, mouse plasma, 8 h
[12] = conversion to Compound 1, mouse plasma, 12 h
[13] = conversion to Compound 83, HEPES buffer pH 7.4, 37 °C, 1 h
[14] = conversion to Compound 83, HEPES buffer pH 7.4, 37 °C, 2 h
[15] = conversion to Compound 83, HEPES buffer pH 7.4, 37 °C, 4 h
[16] = conversion to Compound 83, HEPES buffer pH 7.4, 37 °C, 8 h
[17] = conversion to Compound 83, HEPES buffer pH 7.4, 37 °C, 12 h
[18] = conversion to Compound 83, mouse plasma, 1 h
[19] = conversion to Compound 83, mouse plasma, 2 h
[20] = conversion to Compound 83, mouse plasma, 4 h
[21] = conversion to Compound 83, mouse plasma, 8 h
[22] = conversion to Compound 83, mouse plasma, 12 h

CN(C)C[C@@H]1C(=O)O[C@H]2[C@H]1CC[C@@]1(C)C[C@]13CC[C@@](C)(O)[C@H]23 [compound 2]
T-cell proliferation rate (%) [1]: ++ (T-cell proliferation rate within the 20-40% range compared to the control group)

CN(C)C[C@@H]1C(=O)O[C@H]2[C@H]1CC[C@@]1(C)C[C@]13CC[C@@](C)(O)[C@H]23 [compound 41]
Release rate [2, 4]: 7.0% | Release rate [2, 5]: 16.2% | Release rate [2, 6]: 27.3% | Release rate [2, 7]: 43.4% | Release rate [2, 8]: 53.2% | Release rate [3, 9]: 7.8% | Release rate [3, 10]: 17.2% | Release rate ([3]; conversion to Compound 1, mouse plasma, 4 h): 28.0% | Release rate [3, 11]: 46.1% | Release rate [3, 12]: 54.8%

CN(C)C[C@@H]1C(=O)O[C@H]2[C@H]1CC[C@@]1(C)C[C@]13CC[C@@](C)(O)[C@H]23 [compound 42]
Release rate [2, 4]: 7.0% | Release rate [2, 5]: 15.0% | Release rate [2, 6]: 25.2% | Release rate [2, 7]: 42.8% | Release rate [2, 8]: 52.3% | Release rate [3, 9]: 6.3% | Release rate [3, 10]: 14.2% | Release rate [3, 11]: 41.0% | Release rate [3, 12]: 47.2%

CC1CCN(C[C@@H]2C(=O)O[C@H]3[C@H]2CC[C@@]2(C)C[C@]24CC[C@@](C)(O)[C@H]34)CC1 [compound 43]
T-cell proliferation rate (%) [1]: + (T-cell proliferation rate within the 0-20% range compared to the control group)

CC(C)(C)OC(=O)N1CCN(C[C@@H]2C(=O)O[C@H]3[C@H]2CC[C@@]2(C)C[C@]24CC[C@@](C)(O)[C@H]34)CC1 [compound 44]
T-cell proliferation rate (%) [1]: + (T-cell proliferation rate within the 0-20% range compared to the control group)

CN(C)C[C@@H]1C(=O)O[C@H]2[C@H]1CC[C@@]1(C)C[C@]13C[C@@H](O)[C@@](C)(O)[C@H]23 [compound 60]
T-cell proliferation rate (%) [1]: + (T-cell proliferation rate within the 0-20% range compared to the control group)

CC1=C2[C@H]3OC(=O)[C@@H](CN(C)C)[C@@H]3CC[C@@]3(C)C[C@@]23CC1 [compound 62]
T-cell proliferation rate (%) [1]: + (T-cell proliferation rate within the 0-20% range compared to the control group)

CCC(=O)O[C@]1(C)CC[C@@]23C[C@]2(C)CC[C@@H]2[C@H](CC(=O)[C@H]2CN(C)C)[C@H]31 [compound 63]
T-cell proliferation rate (%) [1]: + (T-cell proliferation rate within the 0-20% range compared to the control group)

C=C1C(=O)O[C@H]2[C@H]1CCC(C)=C1CC[C@@](C)(OC(=O)NC)[C@@H]12 [compound 64]
T-cell proliferation rate (%) [1]: +++ (T-cell proliferation rate >40% compared to the control group)

C=C1C(=O)O[C@H]2[C@H]1CCC(C)=C1CC[C@@](C)(OC(=O)NCC)[C@@H]12 [compound 65]
T-cell proliferation rate (%) [1]: + (T-cell proliferation rate within the 0-20% range compared to the control group)

C=C1C(=O)O[C@H]2[C@H]1CCC(C)=C1CC[C@@](C)(OC(=O)NCCC)[C@@H]12 [compound 66]
T-cell proliferation rate (%) [1]: + (T-cell proliferation rate within the 0-20% range compared to the control group)

C=C1C(=O)O[C@H]2[C@H]1CCC(C)=C1CC[C@@](C)(OC(=O)NCCCC)[C@@H]12 [compound 67]
T-cell proliferation rate (%) [1]: ++ (T-cell proliferation rate within the 20-40% range compared to the control group)

C=C1C(=O)O[C@H]2[C@H]1CCC(C)=C1CC[C@@](C)(OC(=O)NC(C)C)[C@@H]12 [compound 68]
T-cell proliferation rate (%) [1]: + (T-cell proliferation rate within the 0-20% range compared to the control group)

C=C1C(=O)O[C@H]2[C@H]1CCC(C)=C1CC[C@@](C)(OC(=O)NC(CC)CC)[C@@H]12 [compound 69]
T-cell proliferation rate (%) [1]: ++ (T-cell proliferation rate within the 20-40% range compared to the control group)

C=C1C(=O)O[C@H]2[C@H]1CCC(C)=C1CC[C@@](C)(OC(=O)NC3CC3)[C@@H]12 [compound 70]
T-cell proliferation rate (%) [1]: + (T-cell proliferation rate within the 0-20% range compared to the control group)

C=C1C(=O)O[C@H]2[C@H]1CCC(C)=C1CC[C@@](C)(OC(=O)NCCO)[C@@H]12 [compound 71]
T-cell proliferation rate (%) [1]: +++ (T-cell proliferation rate >40% compared to the control group)

C=C1C(=O)O[C@H]2[C@H]1CCC(C)=C1CC[C@@](C)(OC(=O)NCCCO)[C@@H]12 [compound 72]
T-cell proliferation rate (%) [1]: ++ (T-cell proliferation rate within the 20-40% range compared to the control group)

C=C1C(=O)O[C@H]2[C@H]1CCC(C)=C1CC[C@@](C)(OC(=O)NCCOC)[C@@H]12 [compound 74]
T-cell proliferation rate (%) [1]: +++ (T-cell proliferation rate >40% compared to the control group)

C=C1C(=O)O[C@H]2[C@H]1CCC(C)=C1CC[C@@](C)(OC(=O)NCCCOC)[C@@H]12 [compound 75]
T-cell proliferation rate (%) [1]: ++ (T-cell proliferation rate within the 20-40% range compared to the control group)

C=C1C(=O)O[C@H]2[C@H]1CCC(C)=C1CC[C@@](C)(OC(=O)NCCOCCO)[C@@H]12 [compound 76]
T-cell proliferation rate (%) [1]: ++ (T-cell proliferation rate within the 20-40% range compared to the control group)

C=C1C(=O)O[C@H]2[C@H]1CCC(C)=C1CC[C@@](C)(OC(=O)NCCN(C)C)[C@@H]12 [compound 77]
T-cell proliferation rate (%) [1]: + (T-cell proliferation rate within the 0-20% range compared to the control group)

C=C1C(=O)O[C@H]2[C@H]1CCC(C)=C1CC[C@@](C)(OC(=O)NCc3ccccc3)[C@@H]12 [compound 79]
T-cell proliferation rate (%) [1]: ++ (T-cell proliferation rate within the 20-40% range compared to the control group)

C=C1C(=O)O[C@H]2[C@H]1CCC(C)=C1CC[C@@](C)(OC(=O)N(C)C)[C@@H]12 [compound 80]
T-cell proliferation rate (%) [1]: ++ (T-cell proliferation rate within the 20-40% range compared to the control group)

C=C1C(=O)O[C@H]2[C@H]1CCC(C)=C1CC[C@@](C)(OC(=O)N(CC)CC)[C@@H]12 [compound 81]
T-cell proliferation rate (%) [1]: ++ (T-cell proliferation rate within the 20-40% range compared to the control group)

C=C1C(=O)O[C@H]2[C@H]1CCC(C)=C1CC[C@@](C)(OC(=O)N3CCCC3)[C@@H]12 [compound 82]
T-cell proliferation rate (%) [1]: + (T-cell proliferation rate within the 0-20% range compared to the control group)

CC1=C2CC[C@@](C)(OC(=O)N3CCCCC3)[C@@H]2[C@H]2OC(=O)[C@@H](CN3CCCC3)[C@@H]2CC1 [compound 100]
Release rate [2, 13]: 6.5% | Release rate [2, 14]: 14.0% | Release rate [2, 15]: 26.4% | Release rate [2, 16]: 45.2% | Release rate [2, 17]: 51.4% | Release rate [3, 18]: 6.6% | Release rate [3, 19]: 13.8% | Release rate [3, 20]: 25.6% | Release rate [3, 21]: 43.2% | Release rate [3, 22]: 53.0%

CC1=C2CC[C@@](C)(OC(=O)N3CCCCC3)[C@@H]2[C@H]2OC(=O)[C@@H](CN3CCCC3)[C@@H]2CC1 [compound 101]
Release rate [2, 13]: 7.0% | Release rate [2, 14]: 16.0% | Release rate [2, 15]: 28.2% | Release rate [2, 16]: 46.4% | Release rate [2, 17]: 53.6% | Release rate [3, 18]: 7.6% | Release rate [3, 19]: 16.6% | Release rate [3, 20]: 27.4% | Release rate [3, 21]: 46.0% | Release rate [3, 22]: 54.2%

Source: EP4813381A1, “PHARMACEUTICAL USE OF GUAIANE SESQUITERPENE DERIVATIVE” (Nanjing University Of Chinese Medicine, priority 2023, dated 2025)
